Key:
[1] = test system: serum TNF-α; experiment: Mouse LPS-induced serum TNF-α inhibition; type: in vivo; conditions: po, read-out: Mouse LPS-induced serum TNF-α inhibition (ED50, mg/kg, p.o.)
Experimental: Compounds were tested in this animal model according to previously described methods (Corral et al., 1996, Mol. Med., 2:506-515). Mouse LPS-induced serum TNF-α inhibition (ED50, mg/kg, p.o.) = 0.05 for Compound A.

[2] = test system: TNF-α; experiment: LPS-induced TNF-α production from human PBMC; type: cell-based; conditions: LPS 100 ng/ml
Experimental: Lipopolysaccharide (LPS) is an endotoxin produced by gram-negative bacteria such as E. coli which induces production of many pro-inflammatory cytokines, including TNF-α. In peripheral blood mononuclear cells (PBMC), the TNF-α produced in response to LPS is derived from monocytes, which comprise approximately 5-20% of the total PBMC. Compounds were tested for the ability to inhibit LPS-induced TNF-α production from human PBMC as previously described (Muller et al., 1996, J. Med. Chem., 39:3238). PBMC from normal donors were obtained by Ficoll Hypaque (Pharmacia, Piscataway, NJ, USA) density centrifugation. Cells were cultured in RPMI (Life Technologies, Grand Island, NY, USA) supplemented with 10% AB± human serum (Gemini Bio-products, Woodland, CA, USA), 2 mM L-glutamine, 100 U/ml penicillin, and 100 µg/ml streptomycin (Life Technologies).
PBMC (2 x 10^5 cells) were plated in 96-well flat-bottom Costar tissue culture plates (Coming, NY, USA) in triplicate. Cells were stimulated with LPS (Sigma, St. Louis, MO, USA) at 100 ng/ml in the absence or presence of compounds. Compounds (Celgene Corp., Warren, NJ, USA) were dissolved in DMSO (Sigma) and further dilutions were done in culture medium immediately before use. The final DMSO concentration in all samples was 0.25%. Compounds were added to cells one hour before LPS stimulation. […]

[3] = test system: PDE4 (from U937 cells); experiment: PDE4 (U937 cell-derived) enzyme assay; type: biochemical, human; conditions: 1 µM cAMP
Experimental: PDE4 enzyme was purified from U937 human monocytic cells by gel filtration chromatography as previously described (Muller et al., 1998, Bioorg. & Med. Chem. Lett. 8:2669-2674). Phosphodiesterase reactions were carried out in 50 mM Tris HCl pH 7.5, 5 mM MgCl2, 1 µM cAMP, 10 nM [^3H]-cAMP for 30 min at 30°C, terminated by boiling, treated with 1 mg/ml snake venom, and separated using AG-1XS ion exchange resin (BioRad) as described (Muller et al., 1998, Bioorg. & Med. Chem. Lett. 8:2669-2674). Reactions consumed less than 15% of available substrate. Table 1. PDE Specificity

[4] = molecular target: human PDE2 (Homo sapiens, UniProt O00408); experiment: PDE2 enzyme assay; type: biochemical
[5] = test system: LTB4; experiment: fMLF-induced LTB4 production in neutrophils; type: cell-based; conditions: Neutrophil; human neutrophils; 1 µM fMLF
Experimental: N-formyl-methionine-leucine-phenylalanine (fMLF) is a bacterially derived peptide that activates neutrophils to rapidly degranulate, migrate, adhere to endothelial cells, and release leukotriene LTB4, a product of arachidonic acid metabolism and itself a neutrophil chemoattractant. Compounds were tested for the ability to block fMLF-induced neutrophil LTB4 production as previously described (Hatzelmann and Schudt, 2001, J. Pharm. Exp. Ther., 297:267-279), with the following modifications. Neutrophils were isolated as described above and resuspended in phosphate-buffered saline without calcium or magnesium (BioWhittaker) containing 10 mM HEPES pH 7.2 and plated in 96-well tissue culture plates at a concentration of 1.7 x 10^6 cells/well. Cells were treated with 50 µM thimerosal (Sigma)/1 mM CaCl2/1 mM MgCl2 for 15 minutes at 37°C 5% CO2, then treated with compounds at 1000, 200, 40, 8, 1.6, 0.32, 0.064, and 0 nM in a final DMSO concentration of 0.01 % in duplicate for 10 minutes. Neutrophils were stimulated with 1 µM fMLF for 30 minutes, then lysed by the addition of methanol (20% final concentration) and frozen in a dry ice/isopropanol bath for 10 minutes. Lysates were stored at -70°C until the LTB4 content was measured by competitive LTB4 ELISA (R&D Systems).

[6] = test system: neutrophil adhesion to HUVEC; experiment: fMLF-induced neutrophil adhesion to HUVEC; type: cell-based; conditions: human neutrophils, 500 nM fMLF
Experimental: Human umbilical vein endothelial cells (HUVEC) were used as a substrate for neutrophil adhesion as previously described (Derian et al., 1995, J. Immunol., 154:308-317) with the following modifications. HUVEC cells were obtained from Anthrogenesis (Cedar Knolls, NJ, USA), and neutrophils were not treated with cytochalasin B. Cells were treated with compounds at 10, 1, 0.1, 0.01, 0.001, and 0 µM in a final DMSO concentration of 0.1% in duplicate for 10 minutes, stimulated with 500 nM fMLF for 30 minutes, and washed twice with PBS before measuring fluorescence on an FLX800 plate reader (Bio-Tek Instruments, Winooski, VT, USA). Table 2. Assay results

[7] = Aqueous equilibrium solubility in pH 7.4 buffer; type: physicochemical; conditions: pH 7.4
Experimental: Equilibrium solubilities were measured in pH 7.4 aqueous buffer. The pH 7.4 buffer was prepared by adjusting the pH of a 0.07 M NaH2PO4 solution to 7.4 with 10 N NaOH. The ionic strength of the solution was 0.15. At least 1 mg of powder was combined with 1 ml of buffer to make >1 mg/ml mixture. These samples were shaken for >2 hours and left to stand overnight at room temperature. The samples were then filtered through a 0.45-µm Nylon syringe filter that was first saturated with the sample. The filtrate was sampled twice, consecutively. The filtrate was assayed by HPLC against standards prepared in 50% methanol.

Chain of human PDE2 (O00408 whole entry): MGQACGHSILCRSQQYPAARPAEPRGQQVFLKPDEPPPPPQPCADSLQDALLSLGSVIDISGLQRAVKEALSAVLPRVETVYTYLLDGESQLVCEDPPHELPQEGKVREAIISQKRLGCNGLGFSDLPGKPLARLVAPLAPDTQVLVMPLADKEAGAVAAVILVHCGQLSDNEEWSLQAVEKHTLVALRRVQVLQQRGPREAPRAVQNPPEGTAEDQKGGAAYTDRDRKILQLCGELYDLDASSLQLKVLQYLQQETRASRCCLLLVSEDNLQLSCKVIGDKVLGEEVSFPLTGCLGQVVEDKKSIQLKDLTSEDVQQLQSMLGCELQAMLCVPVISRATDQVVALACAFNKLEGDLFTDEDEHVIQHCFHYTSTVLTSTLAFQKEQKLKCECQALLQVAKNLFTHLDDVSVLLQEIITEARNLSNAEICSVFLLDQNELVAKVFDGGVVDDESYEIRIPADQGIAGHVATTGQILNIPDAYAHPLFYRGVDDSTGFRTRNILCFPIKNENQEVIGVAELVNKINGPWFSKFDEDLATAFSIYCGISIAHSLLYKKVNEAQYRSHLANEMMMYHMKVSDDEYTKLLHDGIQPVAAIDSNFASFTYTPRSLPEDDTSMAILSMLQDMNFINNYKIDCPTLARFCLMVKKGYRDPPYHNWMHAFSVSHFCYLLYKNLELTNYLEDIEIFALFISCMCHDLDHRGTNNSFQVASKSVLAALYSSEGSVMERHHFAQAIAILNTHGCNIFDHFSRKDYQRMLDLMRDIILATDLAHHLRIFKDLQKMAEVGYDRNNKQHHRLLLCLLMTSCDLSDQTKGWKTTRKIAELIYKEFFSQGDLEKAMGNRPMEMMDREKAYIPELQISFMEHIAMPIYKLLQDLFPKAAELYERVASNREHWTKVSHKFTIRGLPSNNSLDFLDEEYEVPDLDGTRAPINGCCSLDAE

CCOc1cc(C(CS(C)(=O)=O)N2C(=O)c3cccc(NC(C)=O)c3C2=O)ccc1OC (single isomer, unassigned; (+)) [Compound A, (+)-2-[1-(3-ethoxy-4-methoxyphenyl)-2-methylsulfonylethyl]-4-acetylaminoisoindoline-1,3-dione]
ED50 [1]: 0.05 mg/kg | IC50 [2]: 77 nM | IC50 [3]: 73.5 nM | PDE Specificity Ratio PDE4/PDE2 ([4]; from above data): >10000 fold | inhibition at 10 µM ([4]; read-out: PDE2(% inhib at 10 µM)): 6% | IC50 [5]: 2.48 nM | IC50 [6]: 150 nM | Measured solubility [7]: 12 µg/mL | greater aqueous solubility than the racemic mixture [7]: 3.5 fold

From patent EP2276483B1, “SOLID FORMS COMPRISING (+)-2-[1-(3-ETHOXY-4-METHOXYPHENYL)-2-METHYLSULFONYLETHYL]-4-ACETYLAMINOISOINDOLINE-1,3-DIONE, COMPOSITIONS THEREOF, AND USES THEREOF” (CELGENE CORPORATION, priority 2008, dated 2009)
